BigSolDB 2.1

Cc1nc(-c2ccc(OCC(C)C)c(C#N)c2)sc1C(=O)O
solubility (mole fraction)
Conditions	293.15 K	298.15 K	303.15 K	308.15 K	313.15 K	318.15 K	323.15 K	328.15 K
in acetone	0.00623	0.00743	0.00921	0.0107	0.0129	0.0147	0.0162	0.0171
in ethanol	0.00122	0.00177	0.00269	0.00401	0.00584	0.00836	0.0109	0.0143
in ethyl acetate	0.00376	0.00456	0.00516	0.00643	0.00732	0.00828	0.00975	0.0114
in methanol	0.000524	0.000856	0.00117	0.00162	0.00229	0.00325	0.0045	0.00685
